Data on one compound can be found in publication PMC7252619 (PLoS ONE, 2020).

In this assay the target is T1, MST-4 (Homo sapiens, UniProt Q9P289).
T1 construct: purchased ReactionBiology
Briefly: Kinase activity test (ReactionBiology), % enzyme activity relative to DMSO.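 Also: marketed FDA-approved drugs screened at 10 µM and 1 µM against a ten-kinase panel, remaining activity given as percent of DMSO controls.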 The class given is biochemical. The conditions noted are these: MST4.

[1] abbreviates: Average, read-out: % Enzyme Activity (relative to DMSO controls), Average.
Where [2] appears, read: replicate Data 1, read-out: % Enzyme Activity (relative to DMSO controls), Data 1.
Setting [3] is: replicate Data 2, read-out: % Enzyme Activity (relative to DMSO controls), Data 2.

Like-named read-outs stand apart in the source and are kept apart here.

T1 sequence (Q9P289 whole entry): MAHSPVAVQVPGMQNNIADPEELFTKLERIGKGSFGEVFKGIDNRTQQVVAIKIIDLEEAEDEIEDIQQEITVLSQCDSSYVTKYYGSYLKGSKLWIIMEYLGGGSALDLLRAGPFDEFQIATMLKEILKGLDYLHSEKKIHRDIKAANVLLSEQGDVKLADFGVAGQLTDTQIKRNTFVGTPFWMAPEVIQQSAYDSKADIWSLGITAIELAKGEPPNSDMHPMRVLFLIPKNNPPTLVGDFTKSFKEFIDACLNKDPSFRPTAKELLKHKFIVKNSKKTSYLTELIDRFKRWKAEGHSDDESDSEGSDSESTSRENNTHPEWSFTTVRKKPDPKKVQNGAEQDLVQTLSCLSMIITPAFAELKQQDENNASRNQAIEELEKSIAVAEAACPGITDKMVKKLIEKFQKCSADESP

As to `Nc1ncnc2c1ncn2[C@@H]1O[C@H](CO)[C@@H](O)[C@H]1O` [Adenosine, reference compound], the remaining activity at 1 µM was 91.7% under setting [1], 92.1% under setting [2] and 91.2% under setting [3]. Further, the remaining activity at 10 µM reads like this: under setting [1], 78.5%; under setting [2], 69.9%; under setting [3], 87.1%.
